This is an account of results in BindingDB's records for doi:10.1016/j.bioorg.2017.03.014 (University of Karachi, 2017).

For assay [1], the target named is T1, Carbonic anhydrase 2 (Bos taurus, UniProt P00921). Put plainly: Carbonic Anhydrase II Inhibition Assay. As to conditions: pH 7.4; 25 °C. As to the method:
In this assay, 4-nitrophenyl acetate (4-NPA), a colorless compound, was hydrolyzed to 4-nitrophenol and […]. The reaction was followed by measuring the formation of 4-nitrophenol, a yellow colored compound. The reaction was performed at 25 °C inbuffer containing HEPES and Tris-HCl at a total concentration of 20 mM and pH of 7.4 for each sample. The reaction mixture contained 140 μL of the HEPES-tris solution, 20 μL of freshly prepared aqueous solution of purified bovine erythrocyte CA-II (0.1 mg/mL of deionized water for 96-well), 20 μL of test compound in DMSO (10% final concentration), 20 μL of substrate 4-NPA at a concentration of 0.7 mM diluted in ethanol. The reaction was initiated by addition of 4-NPA after 15 min incubation of test compound, and each compound was tested 3-times at different concentrations. In this assay, the reaction was performed using 96-well plates.

In assay [2] the target is T1, Carbonic anhydrase 2. As to the kind of experiment: Carbonic Anhydrase II Kinetic Assay. As to conditions: pH 7.4. As to the method: Kinetic studies were performed by using different concentration of inhibitors over different concentrations of substrate (4-NPA) such as 0.175, 0.35, 0.70 and 1.40 mM. The enzyme 0.2 mg/mL concentration for each well was used after dissolving in de-ionized water. HEPES-tris ammonia was used as buffer at pH of 7.4. The change in absorbance was measured by keeping the 96-well flat bottom plate in ELISA reader (Spectra max 384, Molecular Devices USA) after addition of substrate for a period of 30 min at 25 °C with 1 min interval.

T1 sequence (P00921 whole entry): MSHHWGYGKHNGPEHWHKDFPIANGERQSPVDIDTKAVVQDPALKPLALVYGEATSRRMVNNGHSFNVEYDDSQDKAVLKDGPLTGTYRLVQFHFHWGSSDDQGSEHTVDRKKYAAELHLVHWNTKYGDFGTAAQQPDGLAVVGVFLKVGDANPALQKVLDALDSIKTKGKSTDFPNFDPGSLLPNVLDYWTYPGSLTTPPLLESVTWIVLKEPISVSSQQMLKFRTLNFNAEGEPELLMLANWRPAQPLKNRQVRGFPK

`O=C(N/N=C/c1ccc(Cl)cc1Cl)N/N=C/c1ccc(Cl)cc1Cl` [N'',N'''-Bis[(E)-(2,4-dichlorophenyl)methylidene]carbonic dihydrazide (8)] registered an IC50 at Carbonic anhydrase 2 [1] of 2.67 µM.
Take `O=C(N/N=C/c1c(Cl)cccc1Cl)N/N=C/c1c(Cl)cccc1Cl` [N'',N'''-Bis[(E)-(2,6-dichlorophenyl)methylidene]carbonic dihydrazide (9)]: the IC50 at Carbonic anhydrase 2 [1] was 1.46 µM. The compound further displayed an inhibitory constant (Ki) at Carbonic anhydrase 2 [2] of 1.78 µM.
On to `O=C(N/N=C/c1ccccc1Br)N/N=C/c1ccccc1Br` [N'',N'''-Bis[(E)-(2-bromophenyl)methylidene]carbonic dihydrazide (5)], for which half-maximal inhibition against Carbonic anhydrase 2 [1] (IC50) was put at 3.96 µM.
In turn, `O=C(N/N=C/c1cc([N+](=O)[O-])ccc1Cl)N/N=C/c1cc([N+](=O)[O-])ccc1Cl` [N'',N'''-Bis[(E)-(2-chloro-5-nitrophenyl)methylidene]carbonic dihydrazide (3)] came in with an IC50 against Carbonic anhydrase 2 [1] of 1.37 µM. The Ki on Carbonic anhydrase 2 [2] was determined as 3.58 µM.
The like results for `O=C(N/N=C/c1ccccc1Cl)N/N=C/c1ccccc1Cl` [N'',N'''-Bis[(E)-(2-chlorophenyl)methylidene]carbonic dihydrazide (7)] were, in that order, 2.33 µM and 4.12 µM.
The like results for `O=C(N/N=C/c1ccccc1[N+](=O)[O-])N/N=C/c1ccccc1[N+](=O)[O-]` [N'',N'''-Bis[(E)-(2-nitrophenyl)methylidene]carbonic dihydrazide (2)] were, in that order, 1.85 µM and 1.81 µM.
The like results for `O=C(N/N=C/c1ccc(Br)cc1)N/N=C/c1ccc(Br)cc1` [N'',N'''-Bis[(E)-(4-bromophenyl)methylidene]carbonic dihydrazide (4)] were, in that order, 2.32 µM and 2.52 µM.
On Carbonic anhydrase 2 [1], `O=C(N/N=C/c1ccc([N+](=O)[O-])cc1)N/N=C/c1ccc([N+](=O)[O-])cc1` [N'',N'''-Bis[(E)-(4-nitrophenyl)methylidene]carbonic dihydrazide (1)] registered an IC50 of 1.33 µM. Moreover, at Carbonic anhydrase 2 [2], the Ki worked out at 2.35 µM.
